# Experimental data from a melting point compilation (Tetko et al.; mined from patent text by program, amines drawn as free bases though some values may be those of a salt).
row,SMILES,melting point [°C]
1,CC(C)(C)OC(=O)N[C@@H]1C(=O)N(OCC(=O)OCc2ccc([N+](=O)[O-])cc2)[C@@H]1COC(N)=O,189 to 191
2,CSc1cc2cc(C)ccc2cc1C=Cc1cc2ccc(C)cc2cc1SC,185 to 186
3,CC(C)=C1C(=O)N(c2ccc(N)cc2)C(=O)/C1=C(\C)c1cc(C)oc1C,209 to 211
4,CC(C)(Cc1ccccc1)C(NC(=O)COc1ccccc1)Nc1c(Nc2cccnc2)c(=O)c1=O (configuration not stated),249 to 250
5,CCOC(=O)C1=C(C)NC(c2csc(C)n2)=NC1c1ccc(O)cc1 (configuration not stated),208 to 210
6,CSc1nn(-c2c(Cl)cc(Cl)cc2Cl)c(N)c1C(N)=O,198 to 199
7,CCC(=O)NCC1CCN(CCOc2ccccc2)CC1,85 to 86
8,O=[N+]([O-])c1ccc(N(CCBr)S(=O)(=O)c2ccccc2)cc1,168
9,COCCNCc1cccc(OCCCNc2nc(N)nn2C)c1,61 to 62.5
10,Cc1[nH]c2ccc(CCN(CC(C)C)CC(C)C)cc2c1C(=O)OCc1ccccc1,134 to 135
11,COc1ccc(C#Cc2ccc(OC3CN4CCC3CC4)cc2)cc1 (configuration not stated),112 to 115
12,OCCCN1CCC(C(O)(c2ccc(F)cc2)c2ccc(F)cc2)CC1,155 to 157
13,O=C(O)C(=O)c1ccc(OCCOc2ccc(-c3ccccc3)cc2)cc1,179 to 180
14,Oc1cc(-c2ccccc2)nc2nn(-c3ccccc3)cc12,280 to 281
15,CCOC(=O)c1cn(CC)c2sc(C)cc2c1=O,140 to 142
16,CC(C(=O)O)c1ccc(N2CC3=C(CC=CC3)C2=O)cc1 (configuration not stated),220 to 222
17,Nc1nc(-c2cc(Cl)ccc2Cl)nc(N2CCNC(=O)C2)n1,> 275
18,O=P1(c2ccccc2)NCc2ccccc21 (configuration not stated),177 to 180
19,CCOC(=O)C=Cc1ccc(N[C@@H](CCC(N)=O)C(=O)O)cc1,192 to 193
20,CC(C)c1cc(C(C)C)c(CC(=O)NS(=O)(=O)Oc2c(C(C)C)cc(O)cc2C(C)C)c(C(C)C)c1,182 to 183
21,O=C1Nc2ccccc2C12COc1cc3c(cc12)CCCC3 (configuration not stated),> 230
22,COCCC(=O)OCC(=O)C1(O)CCC2C3CC(C)C4=CC(=O)C=CC4(C)C3C(O)CC21C (configuration not stated),230
23,OCCN1CCC(Nc2nc3ccccc3n2Cc2ccc(F)cc2)CC1,139
24,CCOC(=O)NCCc1cccc(-c2ccnc3c(Cl)cnn23)c1,100 to 102

row,SMILES,melting point [°C]
1,CC(C)N(CCCCOCC(=O)O)c1nnc(-c2ccccc2)c(-c2ccccc2)n1,128 to 130
2,COc1cc(-c2nn(Cc3ccccc3)c(=O)c3ccccc23)ccc1O,197 to 200
3,NC(=O)c1c(Cl)c(-c2ccccc2)n2c1CN(S(=O)(=O)c1ccc(-c3ccccn3)s1)CC2,222 to 224
4,CCOC(=O)c1cnc(Nc2cc(C)ccc2C)[nH]c1=O,252 to 254
5,Nc1ccc(CNc2n[nH]c3ncnc(Nc4cccc(Cl)c4)c23)cc1,170 to 171
6,Nc1ccc(-c2nc(-c3ccco3)no2)c(Cl)c1,175 to 176
7,Cc1cnc(-n2ccc(C(F)(F)F)n2)nc1Oc1csc(C(F)(F)F)c1,113 to 115
8,ClCCCCc1nnnn1C1CCCCC1,50 to 51
9,CCCc1nc(OC)c(NC(=O)N2CCN(c3cc(OC)cc(OC)c3)CC2)cc1C,121 to 122
10,CN(C)c1ccc(C(=O)CCCN2CCC(C(O)(c3ccccc3)c3ccccc3)CC2)cc1,148 to 150
11,COC(=O)[C@H](Cc1ccc(OCc2ccccc2)cc1)NC(=O)C(CSC(C)=O)Cc1ccccc1 (some centres not stated),92 to 93
12,Cc1nc(=O)n(C)cc1Cl,132 to 134
13,CCCNC(=O)C1C=C2CC=C(OC)C=C2N1CCNC(C)=O (configuration not stated),127 to 128
14,CS(=O)(=O)Nc1c(C(=O)c2ccccc2)[nH]c2cc(Cl)ccc12,215 to 218
15,CCCCCCCCCCCCCCCCCCOc1ccc(C=Cc2ccc(S(=O)(=O)CCCO)cc2)cc1,137
16,CSc1cccc2c1CCn1cc(-c3ccccc3)nc1C2OC1CCN(C)CC1 (configuration not stated),134
17,Cc1oc(-c2ccccc2)nc1CCOc1ccc(C=O)cn1,99 to 100
18,CN(C(=O)Cl)c1ccc2c(c1)OCO2,71 to 73
19,COc1ccc(C(=O)Nc2ccc(-n3nc(C(F)(F)F)cc3C(F)(F)F)cc2)c(Cl)c1,140 to 143
20,CC(C)(C)C1OCCO1,86
21,CCCNC(=NC(=Nc1ccccc1)N1CCOCC1)C(C)C,122 to 124
22,N#Cc1ccnc(N2CCOCC2)c1,135 to 136
23,CC(C)(C)OC(=O)NC(C)(C(=O)O)c1nc2ccccc2s1 (configuration not stated),148 to 150
24,O=C1N(Cc2ncccc2Cl)c2ccccc2C12COc1cc3c(cc12)OCCO3 (configuration not stated),176 to 178

row,SMILES,melting point [°C]
1,COc1ccc(C(=O)Nc2ccccc2)c2c1OCC2CC(=O)O (configuration not stated),248 to 251
2,Cc1onc(-c2ccccc2)c1C(=O)NCCCCl,122 to 124
3,CC(C)(C)OC(=O)N1CCN(c2cccc3ccc(Nc4ncccc4N)cc23)CC1,183 to 184
4,CCOC(=O)c1cn(-c2csnn2)c2nc(Cl)c(F)cc2c1=O,188 to 192
5,NC(=O)c1sc2nccc(N3CCC(c4ccccc4)CC3)c2c1N,226 to 233
6,CS(=O)(=O)Nc1ccc(CCCOCCCCCCNCC(O)c2cc(Cl)c(N)c(Cl)c2)cc1 (configuration not stated),62 to 64
7,Cc1c2c(c(-c3ccccc3)n1C)N(C)C(=O)CN=C2c1ccccc1,232 to 234
8,CC1(C)COc2ccc(OS(C)(=O)=O)cc21,75 to 77
9,CNC(=O)C1CN(CC(=O)Nc2c(Cl)cc(Cl)cc2Cl)CCN1 (configuration not stated),169
10,CCCCCCCCCCCCCCCCNC(=O)c1cc(OCCN=C=S)c2ccccc2c1O,90 to 91
11,O=C(NCc1c(F)cccc1F)c1[nH]c2ccc(Cl)cc2c1S(=O)(=O)c1ccccc1,274 to 280
12,CCOC(=O)c1ccc(NC(=O)C=C(c2ccc(F)cc2)c2ccc(F)cc2)cc1,161 to 163
13,COC(=O)C1=C(C)NC(C)=C(C(=O)OC)N1c1cccc(N)c1,212 to 213
14,COc1cc(C=O)cc2c1OC(C)(C)C2,58 to 59
15,CC(C#N)(CC#N)c1cccc([N+](=O)[O-])c1 (configuration not stated),142 to 143
16,CCNC(=O)c1ncn2c1CN=C(c1ccccc1Br)c1cc(F)ccc1-2,218 to 220
17,O=S(=O)(c1ccc2ccccc2c1)N1C[C@@H](S)C[C@@H]1COCc1ccccc1,79 to 80
18,COc1cc2c3c([nH]c2cc1O)-c1ccccc1C3=O,> 260
19,CCCCCCOc1cc(O)c(-c2nc(-c3ccc(C)cc3C)nc(-c3ccc(C)cc3C)n2)cc1C(C)(C)c1ccccc1,111 to 115
20,CC(C)C(=O)c1c[nH]c2c(COC(=O)c3ccccc3)cccc2c1=O,158 to 160
21,Nc1nc2ccccc2c2c1nc(CF)n2Cc1cc(-c2ccc(F)cc2)no1,192 to 193
22,CN1CCSC1=C[N+](=O)[O-],169 to 171
23,O=C(CNC(=O)c1cccc(Cl)c1)c1ccsc1,137 to 140
24,CCOC(=O)Cc1c(-c2ccccc2)c2cc(C)c(C)cc2oc1=O,127 to 128
